Laboratory results taken from patent EP1183044B1, “ADJUVANT COMBINATIONS FOR IMMUNIZATION AND VACCINES” (priority 1999, dated 2000).

Test system: IFN-γ
Type: in vivo, C57BL/6 mice
Conditions: 72 h supernatant of blood cell cultures one week after last booster; ESAT-6 10 µg/dose, three vaccinations

With CCCCCCCCCCCCCCCCCC[N+](C)(C)CCCCCCCCCCCCCCCCCC.[Br-] [DDA, dimethyl dioctadecyl ammonium bromide] the “ESAT-6 specific recall response, IFN-γ, Expt.I” value was under 50 pg/mL.
